In patent US8933074B2, “1,2-disubstituted heterocyclic compounds” (FORUM Pharmaceuticals Inc., priority 2008, dated 2015):

Each compound was assayed against Human PDE10A1 (Homo sapiens, UniProt Q9Y233) (assay: hPDE10A1 enzyme inhibition). Conditions: [3H]-cAMP substrate, 20 minutes at 37° C.; read-out: hPDE10A1 IC50 Band.
Format: biochemical
Procedure: 50 μl samples of serially diluted Human PDE10A1 enzyme were incubated with 50 μl of [^3H]-cAMP for 20 minutes (at 37° C.). Reactions were carried out in Greiner 96 deep well 1 ml master-block. The enzyme was diluted in 20 mM Tris HCl pH7.4 and [^3H]-cAMP was diluted in 10 mM MgCl2, 40 mM Tris.HCl pH 7.4. The reaction was terminated by denaturing the PDE enzyme (at 70° C.) after which [^3H]-5′-AMP was converted to [^3H]-adenosine by adding 25 μl snake venom nucleotidase and incubating for 10 minutes (at 37° C.). Adenosine, being neutral, was separated from charged cAMP or AMP by the addition of 200 μl Dowex resin. Samples were shaken for 20 minutes then centrifuged for 3 minutes at 2,500 r.p.m. 50 μl of supernatant was removed and added to 200 μl of MicroScint-20 in white plates (Greiner 96-well Optiplate) and shaken for 30 minutes before reading on Perkin Elmer TopCount Scintillation Counter.
To check inhibition profile 11 μl of serially diluted inhibitor was added to 50 μl of [^3H]-cAMP and 50 ul of diluted Human PDE10A1 and assay was carried out as in the enzyme activity assay. Data was analysed using Prism software (GraphPad Inc).

Sequence of Human PDE10A1 (Q9Y233 1-779 isoform Q9Y233-1): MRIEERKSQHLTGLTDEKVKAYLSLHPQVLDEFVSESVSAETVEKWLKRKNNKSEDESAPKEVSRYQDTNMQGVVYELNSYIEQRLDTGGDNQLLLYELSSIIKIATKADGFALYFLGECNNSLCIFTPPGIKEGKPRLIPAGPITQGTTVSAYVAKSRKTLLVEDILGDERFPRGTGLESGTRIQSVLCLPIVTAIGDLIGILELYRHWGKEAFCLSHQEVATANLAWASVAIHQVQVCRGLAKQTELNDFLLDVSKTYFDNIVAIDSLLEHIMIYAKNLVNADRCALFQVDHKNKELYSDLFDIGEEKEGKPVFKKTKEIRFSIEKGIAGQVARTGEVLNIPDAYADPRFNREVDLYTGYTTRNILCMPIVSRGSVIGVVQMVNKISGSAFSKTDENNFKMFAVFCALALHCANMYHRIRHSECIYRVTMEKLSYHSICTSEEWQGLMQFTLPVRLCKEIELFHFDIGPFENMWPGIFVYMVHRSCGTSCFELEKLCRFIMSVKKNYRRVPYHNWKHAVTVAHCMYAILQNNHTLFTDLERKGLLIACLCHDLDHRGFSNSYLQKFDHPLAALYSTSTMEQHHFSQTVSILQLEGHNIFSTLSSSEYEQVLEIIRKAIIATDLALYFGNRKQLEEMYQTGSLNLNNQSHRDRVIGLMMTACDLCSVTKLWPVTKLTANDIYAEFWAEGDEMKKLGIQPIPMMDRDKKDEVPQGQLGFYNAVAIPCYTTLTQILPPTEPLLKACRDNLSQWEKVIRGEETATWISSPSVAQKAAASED

Compound | IC50 [nM]
CN1C(=O)C(c2ccncc2)=C(c2ccc(OCc3ccc4ccccc4n3)cc2)C1=O [Example 11, 1-methyl-3-(pyridin-4-yl)-4-(4-(quinolin-2-ylmethoxy)phenyl)-1H-pyrrole-2,5-dione] | > 50
CC1(C)OC(=O)C(c2ccc(OCc3ccc4ccccc4n3)cc2)=C1c1ccncc1 [Example 23, 5,5-dimethyl-4-(pyridin-4-yl)-3-(4-(quinolin-2-ylmethoxy)phenyl)furan-2(5H)-one] | ≤ 50
O=C1OC2(CC2)C(c2ccncc2)=C1c1ccc(OCc2ccc3ccccc3n2)cc1 [Example 26, 7-(Pyridin-4-yl)-6-(4-(quinolin-2-ylmethoxy)phenyl)-4-oxaspiro[2.4]hept-6-en-5-one] | > 50
COc1ccc(C2=C(c3ccc(OCc4ccc5ccccc5n4)cc3)C(=O)OC2(C)C)cc1 [Example 33, 4-(4-methoxyphenyl)-5,5-dimethyl-3-(4-(quinolin-2-ylmethoxy)phenyl)furan-2(5H)-one] | ≤ 50
CC1(C)NC(=O)C(c2ccc(OCc3ccc4ccccc4n3)cc2)=C1c1ccncc1 [Example 63, 5,5-dimethyl-4-(pyridin-4-yl)-3-(4-(quinolin-2-ylmethoxy)phenyl)-1H-pyrrol-2(5H)-one] | ≤ 50
COc1ccc(C2=C(c3ccc(OCc4ccc5ccccc5n4)cc3)C(=O)N(C)C2(C)C)cc1 [Example 73, 4-(4-methoxyphenyl)-1,5,5-trimethyl-3-(4-(quinolin-2-ylmethoxy)phenyl)-1H-pyrrol-2(5H)-one] | > 50
COc1ccc(C2=C(c3ccc(OCc4ccc5ccccc5n4)cc3)C(=O)OC23CC3)cc1 [Example 126, 7-(4-methoxyphenyl)-6-(4-(quinolin-2-ylmethoxy)phenyl)-4-oxaspiro[2.4]hept-6-en-5-one] | ≤ 50
COc1ccc(C2=C(c3ccc(OCc4ccc5ccccc5n4)cc3)C(=O)C(C)(C)O2)cc1C#N [Example 137, 5-(5,5-Dimethyl-4-oxo-3-(4-(quinolin-2-ylmethoxy)phenyl)-4,5-dihydrofuran-2-yl)-2-methoxybenzonitrile] | ≤ 50
CC1(C)OC(c2ccc(C(F)(F)F)cc2)=C(c2ccc(OCc3ccc4ccccc4n3)cc2)C1=O [Example 154, 2,2-dimethyl-4-(4-(quinolin-2-ylmethoxy)phenyl)-5-(4-(trifluoromethyl)phenyl)furan-3(2H)-one] | ≤ 50
CC1(C)OC(c2ccc(OC(F)(F)F)cc2)=C(c2ccc(OCc3ccc4ccccc4n3)cc2)C1=O [Example 155, 2,2-dimethyl-4-(4-(quinolin-2-ylmethoxy)phenyl)-5-(4-(trifluoromethoxy)phenyl)furan-3(2H)-one] | ≤ 50
CC1(C)OC(c2ccc(CC(F)(F)F)cc2)=C(c2ccc(OCc3ccc4ccccc4n3)cc2)C1=O [Example 156, 2,2-dimethyl-4-(4-(quinolin-2-ylmethoxy)phenyl)-5-(4-(2,2,2-trifluoroethyl)phenyl)furan-3(2H)-one] | ≤ 50
CC(C)Oc1ccc(C2=C(c3ccc(OCc4ccc5ccccc5n4)cc3)C(=O)C(C)(C)O2)cc1 [Example 158, 5-(4-isopropoxyphenyl)-2,2-dimethyl-4-(4-(quinolin-2-ylmethoxy)phenyl)furan-3(2H)-one] | > 50
CC1(C)OC(c2ccc(OC(F)F)cc2)=C(c2ccc(OCc3ccc4ccccc4n3)cc2)C1=O [Example 159, 5-(4-(difluoromethoxy)phenyl)-2,2-dimethyl-4-(4-(quinolin-2-ylmethoxy)phenyl)furan-3(2H)-one] | ≤ 50
CC1(C)OC(c2ccc(OCC3CC3)cc2)=C(c2ccc(OCc3ccc4ccccc4n3)cc2)C1=O [Example 161, 5-(4-(cyclopropylmethoxy)phenyl)-2,2-dimethyl-4-(4-(quinolin-2-ylmethoxy)phenyl)furan-3(2H)-one] | > 50
CC1(C)OC(c2ccc(OCC(F)(F)F)cc2)=C(c2ccc(OCc3ccc4ccccc4n3)cc2)C1=O [Example 162, 2,2-dimethyl-4-(4-(quinolin-2-ylmethoxy)phenyl)-5-(4-(2,2,2-trifluoroethoxy)phenyl)furan-3(2H)-one] | ≤ 50
CC1(C)OC(c2ccc(OC(F)F)c(C#N)c2)=C(c2ccc(OCc3ccc4ccccc4n3)cc2)C1=O [Example 169, 2-(difluoromethoxy)-5-(5,5-dimethyl-4-oxo-3-(4-(quinolin-2-ylmethoxy)phenyl)-4,5-dihydrofuran-2-yl)benzonitrile] | ≤ 50
CC1(C)OC(c2ccc(-n3cnnn3)cc2)=C(c2ccc(OCc3ccc4ccccc4n3)cc2)C1=O [Example 170, 5-(4-(1H-tetrazol-1-yl)phenyl)-2,2-dimethyl-4-(4-(quinolin-2-ylmethoxy)phenyl)furan-3(2H)-one] | ≤ 50

Continued, values first:

IC50 [nM] | Compound
≤ 50 | CC1(C)OC(c2ccncc2)=C(c2ccc(OCc3ccc4ccccc4n3)cc2)C1=O [Example 125, 2,2-dimethyl-5-(pyridin-4-yl)-4-(4-(quinolin-2-ylmethoxy)phenyl) furan-3(2H)-one]
> 50 | CC1(C)OC(c2ccncn2)=C(c2ccc(OCc3ccc4ccccc4n3)cc2)C1=O [Example 127, 2,2-dimethyl-5-(pyrimidin-4-yl)-4-(4-(quinolin-2-ylmethoxy)phenyl)furan-3(2H)-one]
≤ 50 | CC1(C)OC(c2ccnc(O)c2)=C(c2ccc(OCc3ccc4ccccc4n3)cc2)C1=O [Example 130, 5-(2-hydroxypyridin-4-yl)-2,2-dimethyl-4-(4-(quinolin-2-ylmethoxy)phenyl)furan-3(2H)-one]
≤ 50 | COc1cc(C2=C(c3ccc(OCc4ccc5ccccc5n4)cc3)C(=O)C(C)(C)O2)ccn1 [Example 131, 5-(2-methoxypyridin-4-yl)-2,2-dimethyl-4-(4-(quinolin-2-ylmethoxy)phenyl)furan-3(2H)-one]
≤ 50 | CC1(C)OC(c2ccc(O)nc2)=C(c2ccc(OCc3ccc4ccccc4n3)cc2)C1=O [Example 132, 5-(6-hydroxypyridin-3-yl)-2,2-dimethyl-4-(4-(quinolin-2-ylmethoxy)phenyl)furan-3(2H)-one]
≤ 50 | COc1ccc(C2=C(c3ccc(OCc4ccc5ccccc5n4)cc3)C(=O)C(C)(C)O2)cn1 [Example 133, 5-(6-methoxypyridin-3-yl)-2,2-dimethyl-4-(4-(quinolin-2-ylmethoxy)phenyl)furan-3(2H)-one]
≤ 50 | COc1ccc(C2=C(c3ccc(OCc4ccc5ccccc5n4)cc3)C(=O)C(C)(C)O2)cc1F [Example 134, 5-(3-fluoro-4-methoxyphenyl)-2,2-dimethyl-4-(4-(quinolin-2-ylmethoxy)phenyl)furan-3(2H)-one]
≤ 50 | COc1ccc(C2=C(c3ccc(OCc4ccc5ccccc5n4)cc3)C(=O)C(C)(C)O2)cc1Cl [Example 135, 5-(3-Chloro-4-methoxyphenyl)-2,2-dimethyl-4-(4-(quinolin-2-ylmethoxy)phenyl) furan-3(2H)-one]
≤ 50 | COc1ccc(C2=C(c3ccc(OCc4ccc5ccccc5n4)cc3)C(=O)C(C)(C)O2)cc1 [Example 138, 5-(4-Methoxyphenyl)-2,2-dimethyl-4-(4-(quinolin-2-ylmethoxy)phenyl) furan-3(2H)-one]
≤ 50 | CC1(C)OC(c2ccc(C#N)cc2)=C(c2ccc(OCc3ccc4ccccc4n3)cc2)C1=O [Example 141, 4-(5,5-Dimethyl-4-oxo-3-(4-(quinolin-2-ylmethoxy)phenyl)-4,5-dihydrofuran-2-yl)benzonitrile]
≤ 50 | CC1(C)OC(c2ccc(Cl)cc2)=C(c2ccc(OCc3ccc4ccccc4n3)cc2)C1=O [Example 147, 5-(4-Chlorophenyl)-2,2-dimethyl-4-(4-(quinolin-2-ylmethoxy)phenyl) furan-3(2H)-one]
≤ 50 | CC1(C)OC(c2ccc(F)cc2)=C(c2ccc(OCc3ccc4ccccc4n3)cc2)C1=O [Example 153, 5-(4-fluorophenyl)-2,2-dimethyl-4-(4-(quinolin-2-ylmethoxy)phenyl)furan-3(2H)-one]
≤ 50 | CCOc1ccc(C2=C(c3ccc(OCc4ccc5ccccc5n4)cc3)C(=O)C(C)(C)O2)cc1 [Example 157, 5-(4-ethoxyphenyl)-2,2-dimethyl-4-(4-(quinolin-2-ylmethoxy)phenyl)furan-3(2H)-one]
≤ 50 | CC1(C)OC(c2ccc([N+](=O)[O-])cc2)=C(c2ccc(OCc3ccc4ccccc4n3)cc2)C1=O [Example 164, 2,2-Dimethyl-5-(4-nitrophenyl)-4-(4-(quinolin-2-ylmethoxy)phenyl) furan-3(2H)-one]
≤ 50 | CC1(C)OC(c2ccc3nonc3c2)=C(c2ccc(OCc3ccc4ccccc4n3)cc2)C1=O [Example 166, 5-(Benzo[c][1,2,5]oxadiazol-5-yl)-2,2-dimethyl-4-(4-(quinolin-2-ylmethoxy)phenyl)furan-3(2H)-one]
≤ 50 | CC1(C)OC(c2ccc3nsnc3c2)=C(c2ccc(OCc3ccc4ccccc4n3)cc2)C1=O [Example 167, 5-(Benzo[c][1,2,5]thiadiazol-5-yl)-2,2-dimethyl-4-(4-(quinolin-2-ylmethoxy)phenyl)furan-3(2H)-one]
≤ 50 | CC1(C)OC(c2cscn2)=C(c2ccc(OCc3ccc4ccccc4n3)cc2)C1=O [Example 174, 2,2-dimethyl-4-(4-(quinolin-2-ylmethoxy)phenyl)-5-(thiazol-4-yl)furan-3(2H)-one]
≤ 50 | CC1(C)OC(c2ccc(OCc3ccc4ccccc4n3)cc2)=C(c2ccncc2)C1=O [Example 249, 2,2-dimethyl-4-(pyridin-4-yl)-5-(4-(quinolin-2-ylmethoxy)phenyl) furan-3(2H)-one]
